Assays:
[1] = test system: H2O2-induced ROS production in SH-SY5Y cells; experiment: Intracellular ROS measurement (H2DCFDA); format: cell-based, Human; conditions: 12 h pre-treatment, H2O2 100 µM 2 h, H2O2 alone 156.96 ± 5.07%
Experimental: (§1) Human neuroblastoma SH-SY5Y cells (ATCC CRL-2266, Manassas, VA, USA) were maintained in Dulbecco’s modified Eagle’s medium (DMEM, Gibco) supplemented with 10% fetal bovine serum (FBS), 1% kanamycin, and 1% penicillin (Thermo Fisher Scientific, Waltham, MA, USA) at 37 °C with 5% CO2, and a 95% humidified atmosphere in the incubator. The experiments were executed at 80–90% cell confluency.
The cells (1 × 10^4 cells/well) were seeded in a 96-well sterile plate, after which they were pre-treated with the extract for 12 h. […] The fluorescence intensity (Ex 495 nm, Ems 520 nm) was measured by a microplate reader (Synergy-H1 BioTek, Agilent, USA). The ROS was calculated as a percentage of the untreated control cells (100%) in triplicate measurements.

SH-SY5Y cells = experiment: Mitochondrial membrane potential (ΔΨm) assay (TMRE); format: cell-based, Human; conditions: 12 h pre-treatment, 200 μM H2O2 2 h
Experimental: as §1
The mitochondrial membrane potential was measured using the tetramethylrhodamine, methyl ester (TMRE) staining method. The cells (1 × 10^4 cells/well) were seeded in a 96-well sterile plate; after which, they were pre-treated with the extract for 12 h. The extracts and phytocompounds were removed, followed by a 2 h treatment with H2O2 (200 μM). A 1 μM amount of TMRE was added to the cells and incubated for 1 h at 37 °C. The fluorescence was assessed (Ex 549 nm, Ems 575 nm) using a microplate reader (Synergy-H1 BioTek, Agilent, USA). The ΔΨm was calculated as a percentage of the untreated control cells (100%) in triplicate measurements.

`C=C(C)[C@H]1CC=C(C)C(=O)C1` [carvone, D-carvone] was tested, and the “ROS level (% of untreated cells)” value ([1]; 1 µg/mL) was 122.82 ± 6.63%, the “ROS level (% of untreated cells)” value ([1]; 10 µg/mL) was 110.70 ± 4.90% and the “ROS level (% of untreated cells)” value ([1]; 30 µg/mL) was 107.11 ± 8.34%. The “MMP (% ΔΨm vs untreated cells)” value (SH-SY5Y cells; 0.1 µg/mL) was 71.61 ± 0.70%, the “MMP (% ΔΨm vs untreated cells)” value (SH-SY5Y cells; 1 µg/mL) was 80.80 ± 1.20% and the “MMP (% ΔΨm vs untreated cells)” value (SH-SY5Y cells; 10 µg/mL) was 85.18 ± 4.96%. The “MMP (% ΔΨm vs untreated cells)” value (SH-SY5Y cells; 30 µg/mL) was 87.19 ± 6.26%.

— publication PMC11241255 (International Journal of Molecular Sciences, 2024)
